Data as given in ChEMBL document CHEMBL6177930, “2-(4-Bromobenzyl) tethered 4-amino aryl/alkyl-5,6,7,8-tetrahydrobenzo[4,5]thieno[2,3-d]pyrimidines: design, synthesis, anticancer assessment via dual topoisomerase-I/II inhibition, and in silico studies” (RSC Med Chem, 2025).

Assays:
A549 = assay: Antiproliferative activity against human A549 cells assessed as inhibition of cell growth at 10 uM measured after 48 to 72 hrs by MTT assay relative to control; type: functional; conditions: time 48-72 hrs
MCF7 = assay: Antiproliferative activity against human MCF7 cells assessed as inhibition of cell growth at 10 uM measured after 48 to 72 hrs by MTT assay relative to control; type: functional; conditions: time 48-72 hrs
FaDu = assay: Antiproliferative activity against human FaDu cells assessed as inhibition of cell growth at 10 uM measured after 48 to 72 hrs by MTT assay relative to control; type: functional; conditions: time 48-72 hrs
MDA-MB-231 = assay: Antiproliferative activity against human MDA-MB-231 cells assessed as inhibition of cell growth at 10 uM measured after 48 to 72 hrs by MTT assay relative to control; type: functional; conditions: time 48-72 hrs
T47D = assay: Antiproliferative activity against human T47D cells assessed as inhibition of cell growth at 10 uM measured after 48 to 72 hrs by MTT assay relative to control; type: functional; conditions: time 48-72 hrs
[1] = Antiproliferative activity against human HCC cells assessed as inhibition of cell growth at 10 uM measured after 48 to 72 hrs by MTT assay relative to control; type: functional; conditions: time 48-72 hrs
[2] = molecular target: T1, Prostaglandin G/H synthase 2 (Homo sapiens) (UniProt P35354); assay: Inhibition of human recombinant COX-2 at 10 uM relative to control
T1 sequence (whole entry): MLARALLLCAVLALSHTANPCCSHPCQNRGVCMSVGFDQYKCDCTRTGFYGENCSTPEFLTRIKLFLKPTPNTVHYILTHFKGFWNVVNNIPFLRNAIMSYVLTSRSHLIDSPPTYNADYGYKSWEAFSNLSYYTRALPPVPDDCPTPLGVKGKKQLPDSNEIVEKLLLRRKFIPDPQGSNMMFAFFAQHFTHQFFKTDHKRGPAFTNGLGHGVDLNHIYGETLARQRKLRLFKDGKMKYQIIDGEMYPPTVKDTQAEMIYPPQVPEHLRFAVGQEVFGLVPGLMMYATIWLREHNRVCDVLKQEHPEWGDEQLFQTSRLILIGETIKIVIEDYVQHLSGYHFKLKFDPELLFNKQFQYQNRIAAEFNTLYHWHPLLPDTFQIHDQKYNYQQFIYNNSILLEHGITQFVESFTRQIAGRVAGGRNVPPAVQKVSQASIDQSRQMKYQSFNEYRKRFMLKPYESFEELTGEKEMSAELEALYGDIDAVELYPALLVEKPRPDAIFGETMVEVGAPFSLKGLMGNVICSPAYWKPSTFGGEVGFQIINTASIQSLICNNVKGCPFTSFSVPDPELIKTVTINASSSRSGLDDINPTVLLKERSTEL

HEK293 = assay: Antiproliferative activity against HEK293 cells assessed as inhibition of cell growth at 10 to 25 uM measured after 48 to 72 hrs by MTT assay; type: toxicity, cell-based; conditions: human, hek293, 25 µM; dose lower 10 µM, time lower 48 hrs, dose upper 25 µM, time upper 72 hrs
[3] = molecular target: T2, DNA topoisomerase 1 (Homo sapiens) (UniProt P11387); assay: Inhibition of human topoisomerase-I extracted from baculovirus expression system using SC-DNA as substrate incubated for 30 mins by EtBr staining based agarose gel electrophoresis method
T2 sequence (whole entry): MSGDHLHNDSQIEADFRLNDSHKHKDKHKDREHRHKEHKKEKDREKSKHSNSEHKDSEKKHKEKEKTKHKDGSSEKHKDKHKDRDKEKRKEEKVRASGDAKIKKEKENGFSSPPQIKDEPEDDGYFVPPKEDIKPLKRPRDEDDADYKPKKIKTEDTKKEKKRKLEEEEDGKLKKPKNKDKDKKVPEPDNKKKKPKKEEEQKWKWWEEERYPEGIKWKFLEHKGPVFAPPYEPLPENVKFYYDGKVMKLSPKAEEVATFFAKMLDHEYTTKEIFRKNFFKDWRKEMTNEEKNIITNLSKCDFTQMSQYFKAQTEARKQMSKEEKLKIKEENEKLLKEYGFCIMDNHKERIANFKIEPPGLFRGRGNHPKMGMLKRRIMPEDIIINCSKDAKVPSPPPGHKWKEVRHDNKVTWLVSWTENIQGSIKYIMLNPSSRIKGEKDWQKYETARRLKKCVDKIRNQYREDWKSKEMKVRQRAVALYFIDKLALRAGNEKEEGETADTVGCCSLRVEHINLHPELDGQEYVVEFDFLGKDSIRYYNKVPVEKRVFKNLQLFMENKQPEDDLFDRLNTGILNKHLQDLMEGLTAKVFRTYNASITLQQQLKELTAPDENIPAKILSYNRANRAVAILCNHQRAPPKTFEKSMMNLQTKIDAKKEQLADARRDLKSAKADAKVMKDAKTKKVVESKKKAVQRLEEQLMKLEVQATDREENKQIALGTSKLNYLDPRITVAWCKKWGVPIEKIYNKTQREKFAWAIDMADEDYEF

[4] = molecular target: T3, Prostaglandin G/H synthase 1 (Ovis aries) (UniProt P05979); assay: Inhibition of ovine COX-1 at 10 uM relative to control
T3 sequence (whole entry): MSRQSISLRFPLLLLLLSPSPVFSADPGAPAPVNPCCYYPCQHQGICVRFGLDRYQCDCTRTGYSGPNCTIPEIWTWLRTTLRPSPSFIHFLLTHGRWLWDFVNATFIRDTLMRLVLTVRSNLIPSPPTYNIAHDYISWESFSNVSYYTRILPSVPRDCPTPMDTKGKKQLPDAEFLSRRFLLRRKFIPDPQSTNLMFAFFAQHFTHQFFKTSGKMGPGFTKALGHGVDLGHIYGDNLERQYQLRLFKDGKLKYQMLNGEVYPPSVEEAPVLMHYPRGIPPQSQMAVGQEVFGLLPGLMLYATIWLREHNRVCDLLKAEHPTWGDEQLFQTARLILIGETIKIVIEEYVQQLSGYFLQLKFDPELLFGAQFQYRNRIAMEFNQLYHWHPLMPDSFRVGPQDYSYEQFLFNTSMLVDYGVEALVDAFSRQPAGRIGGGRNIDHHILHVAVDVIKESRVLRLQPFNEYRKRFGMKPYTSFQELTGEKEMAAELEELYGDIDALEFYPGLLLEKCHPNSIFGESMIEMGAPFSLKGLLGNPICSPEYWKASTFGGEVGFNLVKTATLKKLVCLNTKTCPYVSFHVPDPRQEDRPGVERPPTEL

[5] = molecular target: DNA topoisomerase 2-alpha (Homo sapiens) (UniProt P11388); assay: Inhibition of human topoisomerase-II alpha assessed as reduction in decatenation activity using kinetoplast DNA as substrate incubated for 30 mins by EtBr staining based agarose gel electrophoresis method
DNA topoisomerase 2-alpha (Homo sapiens), sequence (P11388 whole entry): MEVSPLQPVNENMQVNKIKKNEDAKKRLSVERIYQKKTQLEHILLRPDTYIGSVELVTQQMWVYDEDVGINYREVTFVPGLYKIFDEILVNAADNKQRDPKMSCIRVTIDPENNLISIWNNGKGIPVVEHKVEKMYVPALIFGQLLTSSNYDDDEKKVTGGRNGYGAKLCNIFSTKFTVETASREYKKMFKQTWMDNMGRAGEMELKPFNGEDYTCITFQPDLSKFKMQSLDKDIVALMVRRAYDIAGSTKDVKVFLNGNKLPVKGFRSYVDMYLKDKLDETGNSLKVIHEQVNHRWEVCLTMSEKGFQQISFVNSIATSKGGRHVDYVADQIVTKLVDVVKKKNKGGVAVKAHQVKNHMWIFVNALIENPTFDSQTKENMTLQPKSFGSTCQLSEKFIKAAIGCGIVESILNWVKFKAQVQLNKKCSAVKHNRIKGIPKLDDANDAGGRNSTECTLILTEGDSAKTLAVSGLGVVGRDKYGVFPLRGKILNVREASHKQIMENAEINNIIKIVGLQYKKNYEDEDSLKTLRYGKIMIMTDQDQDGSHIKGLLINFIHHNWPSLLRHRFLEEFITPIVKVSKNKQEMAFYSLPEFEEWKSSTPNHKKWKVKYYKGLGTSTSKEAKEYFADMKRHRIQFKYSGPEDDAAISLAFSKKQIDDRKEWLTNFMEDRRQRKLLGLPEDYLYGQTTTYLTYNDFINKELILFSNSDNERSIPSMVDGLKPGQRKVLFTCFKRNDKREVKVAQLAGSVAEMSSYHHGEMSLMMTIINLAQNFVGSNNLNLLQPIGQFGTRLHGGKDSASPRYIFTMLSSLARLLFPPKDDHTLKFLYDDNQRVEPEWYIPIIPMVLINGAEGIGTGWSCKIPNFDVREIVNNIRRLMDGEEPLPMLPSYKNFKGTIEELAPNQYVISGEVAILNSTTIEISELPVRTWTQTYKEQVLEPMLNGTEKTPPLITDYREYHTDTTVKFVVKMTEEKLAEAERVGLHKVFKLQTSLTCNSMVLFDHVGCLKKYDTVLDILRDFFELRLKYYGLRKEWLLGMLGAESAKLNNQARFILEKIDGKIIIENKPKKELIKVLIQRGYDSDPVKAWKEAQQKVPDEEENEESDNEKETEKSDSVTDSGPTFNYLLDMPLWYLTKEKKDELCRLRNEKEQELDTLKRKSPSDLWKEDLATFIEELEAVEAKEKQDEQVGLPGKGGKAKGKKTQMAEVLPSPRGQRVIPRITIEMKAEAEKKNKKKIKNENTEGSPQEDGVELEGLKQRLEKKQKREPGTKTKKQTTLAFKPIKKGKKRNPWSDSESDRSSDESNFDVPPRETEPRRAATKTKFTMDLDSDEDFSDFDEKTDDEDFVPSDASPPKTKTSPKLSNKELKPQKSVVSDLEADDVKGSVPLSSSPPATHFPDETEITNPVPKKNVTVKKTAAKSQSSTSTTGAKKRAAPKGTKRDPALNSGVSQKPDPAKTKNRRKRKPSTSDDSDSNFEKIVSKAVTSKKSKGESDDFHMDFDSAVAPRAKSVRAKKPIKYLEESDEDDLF

[6] = molecular target: T2, DNA topoisomerase 1 (Homo sapiens); assay: Inhibition of human topoisomerase-I extracted from baculovirus expression system assessed as relaxation of supercoiled DNA using SC-DNA as substrate incubated for 30 mins by EtBr staining based agarose gel electrophoresis method

Row | inhibition [2] [%] | inhibition [4] [%] | inhibition [5] | Compound | inhibition at 10 µM (A549) [%] | inhibition at 10 µM (MCF7) [%] | inhibition at 10 µM (FaDu) [%] | inhibition at 10 µM (MDA-MB-231) [%] | inhibition at 10 µM (T47D) [%] | inhibition at 10 µM [1] [%] | Activity (HEK293) | inhibition [3] | inhibition [6]
1 | – | – | – | Nc1ccccc1CNc1nc(Cc2ccc(Br)cc2)nc2sc3c(c12)CCCC3 | 1.33 | 2.66 | 25.9 | 5.74 | 1.79 | 1.89 | – | – | –
2 | – | – | – | Brc1ccc(Cc2nc(NCc3ccccn3)c3c4c(sc3n2)CCCC4)cc1 | 3.32 | 4.03 | 29.1 | 1.25 | 17.9 | 2.05 | – | – | –
3 | – | – | – | NCCCNc1nc(Cc2ccc(Br)cc2)nc2sc3c(c12)CCCC3 | 8.86 | 8.28 | 54.1 | 1.12 | 8.24 | 8.12 | – | – | –
4 | – | – | – | CCCNc1nc(Cc2ccc(Br)cc2)nc2sc3c(c12)CCCC3 | 3.63 | 3.16 | 56.2 | 3.11 | 17.3 | 1.37 | – | – | –
5 | – | – | – | CNc1nc(Cc2ccc(Br)cc2)nc2sc3c(c12)CCCC3 | 2.65 | 18.7 | 23.4 | 1.09 | 1.69 | 1.28 | – | – | –
6 | – | – | – | CCN(CC)c1nc(Cc2ccc(Br)cc2)nc2sc3c(c12)CCCC3 | 2.22 | 15.7 | 34.2 | 1.91 | 2.88 | 1.47 | – | – | –
7 | – | – | – | Brc1ccc(Cc2nc(NC3CCCCC3)c3c4c(sc3n2)CCCC4)cc1 | 1.56 | 19 | 27.4 | 1.22 | 1.35 | 12.8 | – | – | –
8 | – | – | – | Fc1ccccc1CNc1nc(Cc2ccc(Br)cc2)nc2sc3c(c12)CCCC3 | 3.45 | 19.4 | 26.2 | 6.27 | 2.14 | 2.55 | – | – | –
9 | – | – | – | Brc1ccc(Cc2nc(NCc3ccccc3)c3c4c(sc3n2)CCCC4)cc1 | 3.12 | 0.55 | 24.3 | 4.99 | 11.2 | 1.79 | – | – | –
10 | – | – | – | CC(C)(C)OC(=O)N1CCN(c2nc(Cc3ccc(Br)cc3)nc3sc4c(c23)CCCC4)CC1 | 0.29 | 15.1 | 16.6 | 38.9 | 3.33 | 2.01 | – | – | –
11 | – | – | – | Brc1ccc(Cc2nc(NC3CC3)c3c4c(sc3n2)CCCC4)cc1 | 1.11 | 38.5 | 28.9 | 2.23 | 1.31 | 2.11 | – | – | –
12 | 57.9 | 28.5 | Active; Compound Showed Weak Effect | Brc1ccc(Cc2nc(NCCN3CCNCC3)c3c4c(sc3n2)CCCC4)cc1 | 34.2 | 19.4 | 74.7 | 1.23 | 54 | 1.24 | Non-toxic | Active; Compound Showed Potent Inhibition Activity Than Camptothecin | Active; Compound Showed Significant Inhibition Than Compound 7A
13 | – | – | – | Fc1cc(CNc2nc(Cc3ccc(Br)cc3)nc3sc4c(c23)CCCC4)cc(F)c1F | 6.63 | 8.28 | 25.8 | 2.39 | 3.01 | 1.57 | – | – | –
14 | – | – | – | Fc1ccc(CNc2nc(Cc3ccc(Br)cc3)nc3sc4c(c23)CCCC4)cc1 | 1.55 | 0.55 | 21.4 | 10.8 | 2.58 | 1.36 | – | – | –
15 | – | – | – | C=CCNc1nc(Cc2ccc(Br)cc2)nc2sc3c(c12)CCCC3 | 2.89 | 20.5 | 45.2 | 1.17 | 2.35 | 1.55 | – | – | –
16 | – | – | – | COc1ccc(CNc2nc(Cc3ccc(Br)cc3)nc3sc4c(c23)CCCC4)cc1 | 1.69 | 29.6 | 26.8 | 13.7 | 1.05 | 1.01 | – | – | –
17 | – | – | – | Brc1ccc(Cc2nc(-n3ccnc3)c3c4c(sc3n2)CCCC4)cc1 | 2.45 | 3.19 | 46.9 | 12.8 | 1.99 | 2.03 | – | – | –
18 | – | – | – | Clc1ccccc1CNc1nc(Cc2ccc(Br)cc2)nc2sc3c(c12)CCCC3 | 2.67 | 9.51 | 18.1 | 0.1 | 3.69 | 1.55 | – | – | –
19 | – | – | – | OCCNc1nc(Cc2ccc(Br)cc2)nc2sc3c(c12)CCCC3 | 1.21 | 2.71 | 50.2 | 2.1 | 5.73 | 2 | – | – | –
20 | – | – | – | Brc1ccc(Cc2nc(N3CCCC3)c3c4c(sc3n2)CCCC4)cc1 | 10.3 | 19.4 | 49.2 | 8.72 | 3.74 | 1.36 | – | – | –
21 | – | – | – | C#Cc1cccc(Nc2ncnc3cc(OCCOC)c(OCCOC)cc23)c1 [ERLOTINIB] | – | 6.71 | 19.7 | 19.6 | 1.27 | 4.19 | – | – | –
